Data on one molecule can be found in patent US6852863B2, “Metabolites of (3-{[4-tert-butyl-benzyl)-(pyridine-3-sulfonyl)-amino]-methyl}-phenoxy)-acetic acid” (Pfizer Inc., priority 2002, dated 2005).

Molecules are shown by their SMILES.

A short description of data set [1]: Metabolism of 14C-parent in rat liver microsomes. The format is in vitro ADME. Particulars: 20 μM 14C-parent, NADPH, 30 minutes, 37° C.; HPLC radiochromatogram peak. The protocol: (§1) Human (HL-mix 12), rat, monkey and dog liver microsomes were prepared by differential centrifugation using standard procedures. Prior to use, liver microsomes were thawed on ice and reconstituted using 100 mM potassium phosphate pH 7.4. [^14C]-(3-{[4-tert-butyl-benzyl)-(pyridine-3-sulfonyl)-amino]-methyl}-phenoxy)-acetic acid was dissolved 100 mM potassium phosphate pH 7.4 at a final substrate concentration of 20 μM. Samples were pre-incubated for 3 min with microsomes (CYP 450; 0.5 μM) at 37° C. in a shaking water bath. Incubations were initiated with the addition of 100 μl cofactor (1.1 mM NADPH, 10 mM MgCl2) per 1 ml of incubation mixture. Incubations were stopped after 30 minutes by the addition of an equal volume of cold acetonitrile.
(§2) Metabolite quantification was performed by measuring the areas of individually separated HPLC peaks using the β-RAM (IN/US, Win-flow). […]
(§3) Identification of the metabolites was performed using a Finnigan TSQ 7000 triple quadrupole mass spectrometer equipped with an API-2 electrospray interface. […] The β-RAM response was recorded as a real time analog signal by the MS data collection system. The collected data from the radioactivity and MS detectors were separated by the dwell volume of flow from the MS to the radioactivity detector (corresponding to a dwell time of about 0.2 min.). […]
A general note: Liver microsomes are vesicles of endoplasmic reticulum, rich in cytochrome P450 enzymes.

Data set [2] can be described thus: Metabolism of 14C-parent in dog liver microsomes. It is filed as in vitro ADME. Particulars: 20 μM 14C-parent, NADPH, 30 minutes, 37° C.; HPLC radiochromatogram peak. As to the method:
as §1, §2, §3

Data set [3] can be described thus: Metabolism of 14C-parent in monkey liver microsomes. The format is in vitro ADME. The conditions noted are these: 20 μM 14C-parent, NADPH, 30 minutes, 37° C.; HPLC radiochromatogram peak. The protocol: as §1, §2, §3
The nature of data set [4]: Metabolism of 14C-parent in human liver microsomes. It is filed as in vitro ADME. The conditions noted are these: 20 μM 14C-parent, NADPH, 30 minutes, 37° C.; HPLC radiochromatogram peak. As to the method: as §1, §2, §3
The nature of data set [5]: Radiolabelled mass balance and metabolic profiles of 14C-parent in Sprague Dawley rats. The conditions noted are these: single 15 mg/kg I.V. dose of 14C-parent. It is filed as in vivo. As to the method:
To determine the radiolabelled mass balance and metabolic profiles of (3-{[4-tert-butyl-benzyl)-(pyridine-3-sulfonyl)-amino]-methyl}-phenoxy)-acetic acid in urine, feces, bile and plasma of Sprague-Dawley rats after I.V. administration of a single 15 mg/kg dose of ^14C-(3-{[4-tert-butyl-benzyl)-(pyridine-3-sulfonyl)-amino]-methyl}-phenoxy)-acetic acid.
A group of three male and three female jugular-vein cannulated Sprague-Dawley rats (230-240 g) was housed individually in stainless steel metabolic cages designed to collect urine and feces and administered intravenously a single, 15 mg/kg, dose of ^14C-(3-{[4-tert-butyl-benzyl)-(pyridine-3-sulfonyl)-amino]-methyl}-phenoxy)-acetic acid. […]
The radioactivity in urine, bile and plasma was determined by liquid scintillation counting. Aliquots of urine (0.1 g), bile (0.025 g) or plasma (0.025 g) were mixed with 5 ml of Ecolite (+) scintillation cocktail and counted in a Wallac #1409 liquid scintillation counter (Gaithersburg, Md.). Fecal samples at each time point were homogenized with water, and the total weights of the fecal homogenate were recorded. […]
The radioactivity in the dose was established as 100% of the total radioactivity. The radioactivity at each sampling time for urine and feces was defined as the percentage of dose excreted in the respective matrices. […]

Consider `CC(C)(CO)c1ccc(CN(Cc2cccc(OCC(=O)O)c2)S(=O)(=O)c2cccnc2)cc1` [Metabolite M4, (3-{[[4-(2-hydroxy-1,1-dimethyl-ethyl)-benzyl]-(pyridine-3-sulfonyl)-amino]-methyl}-phenoxy)-acetic acid], for which the “Percent of Radioactivity, Rat liver microsomes” value in data set [1] was 4.38%. In data set [2], the “Percent of Radioactivity, Dog liver microsomes” value turned out to be 11.5%. In addition, in data set [3], the “Percent of Radioactivity, Monkey liver microsomes” value is 47.3%. The “Percent of Radioactivity, Human liver microsomes” value in data set [4] was determined as 26.5%. The “Percentage of metabolite formed in vivo, females (basis of % not stated)” value in data set [5] (female rats) was found to be 6.5%. For the same molecule, in data set [5] (male rats), the “Percentage of metabolite formed in vivo, males (basis of % not stated)” value was 19.7%.
